The text below walks through data of patent US8822449B2, “Substituted aminoindanes and analogs thereof, and the pharmaceutical use thereof” (Sanofi, priority 2008, dated 2014).

The experiment addresses T1, sodium-proton exchanger of subtype 3 (NHE3) (Homo sapiens, UniProt P48764).
T1 construct: expressed in transfected cells
T1 sequence (P48764 26-834): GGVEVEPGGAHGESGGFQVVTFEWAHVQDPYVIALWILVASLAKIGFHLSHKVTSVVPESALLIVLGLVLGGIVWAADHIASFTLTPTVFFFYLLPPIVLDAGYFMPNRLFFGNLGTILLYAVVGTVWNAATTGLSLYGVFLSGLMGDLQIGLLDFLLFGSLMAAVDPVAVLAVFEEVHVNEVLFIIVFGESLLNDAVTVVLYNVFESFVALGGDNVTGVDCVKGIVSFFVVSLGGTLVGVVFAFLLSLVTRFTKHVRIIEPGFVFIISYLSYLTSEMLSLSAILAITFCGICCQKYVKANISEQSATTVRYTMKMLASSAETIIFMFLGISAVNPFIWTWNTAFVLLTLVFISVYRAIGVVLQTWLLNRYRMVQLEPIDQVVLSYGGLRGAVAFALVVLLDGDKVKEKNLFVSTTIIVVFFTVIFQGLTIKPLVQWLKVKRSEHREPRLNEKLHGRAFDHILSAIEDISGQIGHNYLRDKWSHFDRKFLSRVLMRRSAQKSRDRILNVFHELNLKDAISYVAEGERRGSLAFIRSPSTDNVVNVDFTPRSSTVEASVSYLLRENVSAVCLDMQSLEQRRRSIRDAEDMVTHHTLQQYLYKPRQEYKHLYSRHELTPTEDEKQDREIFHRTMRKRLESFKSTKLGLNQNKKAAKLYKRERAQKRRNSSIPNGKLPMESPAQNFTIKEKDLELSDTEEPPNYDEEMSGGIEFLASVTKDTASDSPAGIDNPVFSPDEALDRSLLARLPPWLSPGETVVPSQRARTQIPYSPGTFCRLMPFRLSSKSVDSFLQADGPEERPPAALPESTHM
As to the kind of experiment: Recovery of intracellular pH (pHi) after acidification in LAP1 cells stably expressing NHE3 (BCECF fluorescence, FLIPR). Format: cell-based. Particulars: LAP1 cells stably expressing NHE3; pH recovery after acidification; range 1 is % inhibition at 10 μM; read-out: Activity range (inhibitory effect on NHE3).

SMILES strings stand for the structures. Bounds are passed on as bounds.

With `Cc1nnc(C)n1-c1ccc(O[C@H]2c3cc(Cl)ccc3C[C@@H]2N2CC[C@@H](O)C2)cc1` [Example 145, (R)-1-{trans-(1S,2S)-6-chloro-1-[4-(3,5-dimethyl-[1,2,4]triazol-4-yl)phenoxy]indan-2-yl}pyrrolidin-3-ol], the IC50 was less than 1000 nM.
As to `NS(=O)(=O)c1ccc(O[C@@H]2c3ccccc3C[C@H]2NC2CCCC2)c(F)c1` (racemic) [Example 460, 4-(2-cyclopentylaminoindan-1-yloxy)-3-fluorobenzenesulfonamide], the IC50 was less than 1000 nM.
`O=S1(=O)CCCN1c1cccc(O[C@H]2c3ccccc3C[C@@H]2N2CCCC2)c1` (racemic) [Example 363, 2-[3-(rac-trans-(1,2)-2-pyrrolidin-1-ylindan-1-yloxy)phenyl]isothiazolidine 1,1-dioxide]: the IC50 lay within 1000 to 10000 nM.
Regarding `NS(=O)(=O)c1ccc(O[C@@H]2c3ccccc3C[C@H]2NCC2CCC2)c(F)c1` (racemic) [Example 718, 4-[rac-trans-(1,2)-2-(Cyclobutylmethyl-amino)-indan-1-yloxy]-3-fluoro-benzenesulfonamide], the IC50 was less than 1000 nM.
As for `N[C@@H]1CCCN([C@H]2CCc3ccccc3[C@@H]2Oc2ccc(F)c(F)c2)C1` (racemic) [Example 51, (R)-1-[rac-trans-(1,2)-1-(3,4-difluorophenoxy)-1,2,3,4-tetrahydronaphthalen-2-yl]piperidin-3-ylamine], the inhibition at 10 µM lay within 20 to 50%.
In the case of `COC(=O)c1nccn1-c1ccc(O[C@H]2c3cc(Cl)cc(Cl)c3C[C@@H]2N2CC[C@@H](O)C2)c(F)c1` [Example 740, 1-{4-[trans-(1S,2S)-4,6-Dichloro-2-((R)-3-hydroxy-pyrrolidin-1-yl)-indan-1-yloxy]-3-fluoro-phenyl}-1H-imidazole-2-carboxylic acid methyl ester], the IC50 was less than 1000 nM.
As to `CS(=O)(=O)c1ccc(O[C@H]2c3ccccc3CC[C@@H]2N2CCC[C@@H](N)C2)cc1` (racemic) [Example 73, (R)-1-[rac-trans-(1,2)-1-(4-methanesulfonylphenoxy)-1,2,3,4-tetrahydronaphthalen-2-yl]piperidin-3-ylamine], the IC50 is less than 1000 nM.
In the case of `COc1cccc(F)c1O[C@@H]1c2ccccc2C[C@H]1N1CCC(CN)CC1` (racemic) [Example 604, C-{1-[rac-trans-(1,2)-1-(2-fluoro-6-methoxyphenoxy)indan-2-yl]piperidin-4-yl}methylamine], the IC50 is less than 1000 nM.
Take `Cc1nnc(C)n1-c1ccc(O[C@H]2c3cc(Cl)cc(F)c3C[C@@H]2N2CC[C@@H](O)C2)c(Cl)c1` [Example 138, (R)-1-{trans-(1S,2S)-6-chloro-1-[2-chloro-4-(3,5-dimethyl-[1,2,4]triazol-4-yl)phenoxy]-4-fluoroindan-2-yl}pyrrolidin-3-ol]: the IC50 was less than 1000 nM.
As for `O=C1CCCN1c1ccc(O[C@H]2c3cc(Cl)cc(Cl)c3C[C@@H]2N2CCC2)cc1` [Example 259, 1-[4-((1S,2S)-2-azetidin-1-yl-4,6-dichloroindan-1-yloxy)phenyl]pyrrolidin-2-one], the inhibition at 10 µM lay in the range of 20 to 50%.
In the case of `CS(=O)(=O)c1ccccc1O[C@H]1c2ccccc2CC[C@@H]1N1CCC[C@@H](N)C1` (racemic) [Example 45, (R)-1-[rac-trans-(1,2)-1-(2-methanesulfonylphenoxy)-1,2,3,4-tetrahydronaphthalen-2-yl]piperidin-3-ylamine], the inhibition at 10 µM was in the range of 20 to 50%.
In the case of `NS(=O)(=O)c1ccc(O[C@H]2c3ccccc3C[C@@H]2CN2CCOCC2)c(F)c1` (racemic) [Example 449, 3-fluoro-4-(2-morpholin-4-ylmethylindan-1-yloxy)benzenesulfonamide], the inhibition at 10 µM fell in the range of 20 to 50%.
For `CS(=O)(=O)c1ccc(O[C@H]2c3cc(F)ccc3C[C@@H]2N2CCNCC2)cc1` (racemic) [Example 294, 1-[rac-trans-(1,2)-6-fluoro-1-(4-methanesulfonylphenoxy)indan-2-yl]piperazine], the IC50 was 1000 to 10000 nM.
`CS(=O)(=O)c1ccc(O[C@H]2c3cc(Cl)cc(Cl)c3C[C@@H]2N2CCC[C@@H](N)C2)cc1` [Example 102, (R)-1-[trans-(1S,2S)-4,6-dichloro-1-(4-methanesulfonylphenoxy)indan-2-yl]piperidin-3-ylamine]: the IC50 is less than 1000 nM.
Take `CSc1ccc(O[C@H]2c3ccccc3CC[C@@H]2N2CCC[C@H](N)C2)cc1` (racemic) [Example 183, (S)-1-[rac-trans-(1,2)-1-(4-methylsulfanylphenoxy)-1,2,3,4-tetrahydronaphthalen-2-yl]piperidin-3-ylamine]: the inhibition at 10 µM was 20 to 50%.
With `N[C@@H]1CCCN([C@@H]2Cc3ccccc3[C@H]2Oc2ccc(Br)cc2-c2cc[nH]n2)C1` (racemic) [Example 118, (R)-1-{rac-trans-(1,2)-1-[4-bromo-2-(1H-pyrazol-3-yl)phenoxy]indan-2-yl}piperidin-3-ylamine], the IC50 lay in the range of 1000 to 10000 nM.
As to `Cc1ccc(O[C@H]2c3ccccc3CC[C@@H]2N2CCC[C@H](N)C2)c(Br)c1` (racemic) [Example 150, (S)-1-[rac-trans-(1,2)-1-(2-bromo-4-methylphenoxy)-1,2,3,4-tetrahydronaphthalen-2-yl]piperidin-3-ylamine], the inhibition at 10 µM was in the range of 20 to 50%.
Consider `N#Cc1ccc(S[C@H]2c3ccccc3C[C@@H]2N2CCCC2)cc1` [Example 455, 4-((1S,2S)-2-pyrrolidin-1-ylindan-1-ylsulfanyl)benzonitrile], for which the inhibition at 10 µM lay in the range of 20 to 50%.
On to `Cc1cc(O[C@H]2c3cc(Cl)cc(F)c3C[C@@H]2N2CCCC2)ccc1S(C)(=O)=O` (racemic) [Example 291, 1-[rac-trans-(1,2)-6-chloro-4-fluoro-1-(4-methanesulfonyl-3-methylphenoxy)indan-2-yl]pyrrolidine], for which the IC50 lay within 1000 to 10000 nM.
In the case of `COC(=O)c1ccc(O[C@H]2c3ccccc3CC[C@@H]2N2CCC[C@H](N)C2)c(Cl)c1` (racemic) [Example 531, 4-[rac-trans-(1,2)-2-((S)-3-aminopiperidin-1-yl)-1,2,3,4-tetrahydronaphthalen-1-yloxy]-3-chlorobenzoic acid methyl ester], the inhibition at 10 µM is 20 to 50%.
As for `Cc1nnc(C)n1-c1ccc(O[C@H]2c3cc(Cl)cc(F)c3C[C@@H]2N2CC[C@@H](O)C2)c(F)c1` [Example 142, (R)-1-{trans-(1S,2S)-6-chloro-1-[4-(3,5-dimethyl-[1,2,4]triazol-4-yl)-2-fluorophenoxy]-4-fluoroindan-2-yl}pyrrolidin-3-ol], the IC50 is less than 1000 nM.
With `N#Cc1ccc(O[C@@H]2c3ccccc3C[C@H]2N2CCC[C@@H](N)C2)c(Cl)c1` (racemic) [Example 523, 4-[rac-trans-(1,2)-2-((R)-3-aminopiperidin-1-yl)indan-1-yloxy]-3-chlorobenzonitrile], the IC50 was 1000 to 10000 nM.
As for `CN(C1CCNCC1)[C@@H]1Cc2ccccc2[C@H]1Oc1cccc(N2CCNCC2)c1` (racemic) [Example 629, methyl-[rac-trans-(1,2)-1-(3-piperazin-1-ylphenoxy)indan-2-yl]piperidin-4-ylamine], the IC50 lay in the range of 1000 to 10000 nM.
For the compound `NS(=O)(=O)c1ccc(O[C@H]2c3cc(Cl)cc(F)c3C[C@@H]2NC2CCCC2)c(F)c1` [Example 750, 4-(trans-(1S,2S)-6-Chloro-2-cyclopentylamino-4-fluoro-indan-1-yloxy)-3-fluoro-benzenesulfonamide], the IC50 lay in the range of 1000 to 10000 nM.
On to `N[C@H]1CCCN([C@H]2CCc3ccccc3[C@@H]2Oc2ccccc2N2CCOCC2)C1` (racemic) [Example 158, (S)-1-[rac-trans-(1,2)-1-(2-morpholin-4-ylphenoxy)-1,2,3,4-tetrahydronaphthalen-2-yl]piperidin-3-ylamine], for which the inhibition at 10 µM fell in the range of 20 to 50%.
Turning to `COCCc1ccc(O[C@@H]2c3ccccc3C[C@H]2N2CCC(N)C2)cc1` (mixture of isomers) [Example 342, 1-{rac-trans-(1,2)-1-[4-(2-methoxyethyl)phenoxy]indan-2-yl}pyrrolidin-3-ylamine], the IC50 is 1000 to 10000 nM.
In the case of `CCOc1cccc(O[C@@H]2c3ccccc3C[C@H]2N2CCC(CN)C2)c1` (mixture of isomers) [Example 615, C-{1-[rac-trans-(1,2)-1-(3-ethoxyphenoxy)indan-2-yl]pyrrolidin-3-yl}methylamine], the IC50 lay within 1000 to 10000 nM.
Turning to `CC1(C)NC(=O)N(c2ccc(O[C@H]3c4cc(Cl)cc(Cl)c4C[C@@H]3N3CC[C@@H](O)C3)cc2)C1=O` [Example 425, 3-{4-[(1S,2S)-4,6-dichloro-2-((R)-3-hydroxypyrrolidin-1-yl)indan-1-yloxy]phenyl}-5,5-dimethylimidazolidine-2,4-dione], the IC50 is less than 1000 nM.
Turning to `CS(=O)(=O)c1ccc(O[C@H]2c3ccccc3C[C@@H]2NCC2CCCC2)cc1` (racemic) [Example 705, Cyclopentylmethyl-[rac-trans-(1,2)-1-(4-methanesulfonyl-phenoxy)-indan-2-yl]-amine], the IC50 is 1000 to 10000 nM.
